Data on 20 compounds can be found in patent US20240417369A1, “RXFP1 AGONISTS” (BRISTOL-MYERS SQUIBB COMPANY, priority 2021, published 2024).

One series deals with T1, human RXFP1 (Homo sapiens, UniProt Q9HBX9).
T1 construct: expressed in transfected cells
T1 sequence (Q9HBX9 1-757): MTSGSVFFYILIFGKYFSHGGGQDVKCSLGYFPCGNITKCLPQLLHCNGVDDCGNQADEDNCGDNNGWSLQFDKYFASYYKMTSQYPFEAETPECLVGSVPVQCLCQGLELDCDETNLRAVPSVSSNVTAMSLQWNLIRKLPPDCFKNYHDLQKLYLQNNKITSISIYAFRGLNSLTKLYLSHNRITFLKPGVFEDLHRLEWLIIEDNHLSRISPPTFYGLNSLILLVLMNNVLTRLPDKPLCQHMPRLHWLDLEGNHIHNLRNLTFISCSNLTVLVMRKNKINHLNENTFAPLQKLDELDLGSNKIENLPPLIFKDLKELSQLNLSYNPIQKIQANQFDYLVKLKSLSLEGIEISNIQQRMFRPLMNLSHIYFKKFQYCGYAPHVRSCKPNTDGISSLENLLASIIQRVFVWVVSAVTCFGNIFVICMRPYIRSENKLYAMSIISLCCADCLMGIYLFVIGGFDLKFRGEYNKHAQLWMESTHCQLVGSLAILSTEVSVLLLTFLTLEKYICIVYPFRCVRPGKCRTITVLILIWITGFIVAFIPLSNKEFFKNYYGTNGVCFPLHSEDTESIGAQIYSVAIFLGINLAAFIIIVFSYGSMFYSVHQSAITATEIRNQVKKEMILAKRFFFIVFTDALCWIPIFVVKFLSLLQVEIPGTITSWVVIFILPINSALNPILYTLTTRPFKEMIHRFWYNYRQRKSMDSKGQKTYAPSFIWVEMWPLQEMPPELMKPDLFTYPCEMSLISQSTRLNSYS
The series can be described thus: cAMP hRXFP1 HEK293 Assay. Particulars: HEK293 cells stably expressing human RXFP1; 30 min at room temperature; HTRF cAMP. The series is classed as cell-based. Here is the method:
RXFP1 Cyclic Adenosine Monophosphate (cAMP) Assays. Human embryonic kidney cells 293 (HEK293) cells and HEK293 cells stably expressing human RXFP1, were cultured in MEM medium supplemented with 10% qualified FBS, and 300 μg/ml hygromycin (Life Technologies). Cells were dissociated and suspended in assay buffer. The assay buffer was HBSS buffer (with calcium and magnesium) containing 20 mM HEPES. 0.05% BSA, and 0.5 mM IBMX. Cells (3000 cells per well, except 1500 cell per well for HEK293 cells stably expressing human RXFP1) were added to 384-well Proxiplates (Perkin-Elmer). Cells were immediately treated with test compounds in DMSO (2% final) at final concentrations in the range of 0.010 nM to 50 μM. Cells were incubated for 30 min at room temperature. The level of intracellular cAMP was determined using the HTRF HiRange cAMP assay reagent kit (Cisbio) according to manufacturer's instructions. Solutions of cryptate conjugated anti-cAMP and d2 fluorophore-labelled cAMP were made in a supplied lysis buffer separately. Upon completion of the reaction, the cells were lysed with equal volume of the d2-cAMP solution and anti-cAMP solution. After a 1 h room temperature incubation, time-resolved fluorescence intensity was measured using the Envision (Perkin-Elmer) at 400 nm excitation and dual emission at 590 nm and 665 nm. A calibration curve was constructed with an external cAMP standard at concentrations ranging from 2.7 μM to 0.1 μM by plotting the fluorescent intensity ratio from 665 nm emission to the intensity from the 590 nm emission against cAMP concentrations. The potency and activity of a compound to inhibit cAMP production was then determined by fitting to a 4-parametric logistic equation from a plot of cAMP level versus compound concentrations.
The examples disclosed below were tested in the human RXFP1 (hRXFP1) HEK293 cAMP assay described above and found to have agonist activity. Table I lists EC50 values in the hRXFP1 HEK293 cAMP assay measured for the examples.
For the compound `O=C(N[C@@H]1C2CCC(/C2=C/C2CC2)[C@@H]1C(=O)Nc1ccc(F)c(C(F)(F)F)c1)C1CCC[C@H](C2=NOC3COCC23)C1` (single isomer, unassigned) [Example 13], the response was half-maximal at 2900 nM (EC50).

For `O=C(NC1C2CCC(/C2=C/C2CC2)[C@@H]1C(=O)Nc1ccc(F)c(C(F)(F)F)c1)C1CCC[C@H](C2=NOC3COCC23)C1` (single isomer, unassigned) [Example 12], a half-maximal effect (EC50) was put at 350 nM. The same measure, in the same setting: under `COc1ccc(Cl)cc1NC(=O)N[C@H]1[C@@H](C(=O)Nc2ccc(F)c(C(F)(F)F)c2)[C@H]2CC[C@@H]1/C2=C\C(F)(F)F` [Example 4, (1R,2S,3R,4R,Z)-3-(3-(5-chloro-2-methoxyphenyl)ureido)-N-(4-fluoro-3-(trifluoromethyl)phenyl)-7-(2,2,2-trifluoroethylidene)bicyclo[2.2.1]heptane-2-carboxamide] stands 3800 nM; under `O=C(N[C@@H]1C2CCC(/C2=C/C2CC2)[C@@H]1C(=O)Nc1ccc(F)c(C(F)(F)F)c1)C1CCC[C@H](C2=NOC3COCC23)C1` (single isomer, unassigned) [Example 14], 1600 nM; under `O=C(N[C@H]1[C@@H](C(=O)Nc2ccc(F)c(C(F)(F)F)c2)[C@H]2CC[C@@H]1/C2=C\C1CC1)C1CCC[C@@H](C2=NOC3COCC23)C1` (single isomer, unassigned) [Example 18], 1000 nM.

With `O=C(O)c1cccc(C2CCC(C(=O)NC3C4CCC(C4=CC(F)(F)F)C3C(=O)Nc3ccc(F)c(C(F)(F)F)c3)C2)c1` (single isomer, unassigned) [Example 10], the concentration for a half-maximal effect (EC50) came to 2000 nM. In turn, `O=C(N[C@H]1[C@@H](C(=O)Nc2ccc(F)c(C(F)(F)F)c2)[C@H]2CC[C@@H]1/C2=C\C1CC1)C1CCC[C@@H](C2=NOC3COCC23)C1` (single isomer, unassigned) [Example 19] registered an EC50 of 2000 nM. On the same count and under the same terms, under `O=C(CCCCCCCO)N[C@@H]1C2CCC(/C2=C/C2CC2)C1C(=O)Nc1ccc(F)c(C(F)(F)F)c1` (stereo in doubt) [Example 5, (1R,2R,3R,4R,Z)-7-(cyclopropylmethylene)-N-(4-fluoro-3-(trifluoromethyl)phenyl)-3-(8-hydroxyoctanamido)bicyclo [2.2.1]heptane-2-carboxamide] stands 1200 nM. Still for that read-out and setting: for `O=C(N[C@H]1[C@@H](C(=O)Nc2ccc(F)c(C(F)(F)F)c2)[C@H]2CC[C@@H]1/C2=C\C1CC1)C1CCC[C@@H](C2=NOC3COCC23)C1` (single isomer, unassigned) [Example 17] the value was 1600 nM; for `O=C(N[C@H]1[C@@H](C(=O)Nc2ccc(F)c(C(F)(F)F)c2)[C@H]2CC[C@@H]1/C2=C\C(F)(F)F)C(O)c1cccc(Oc2ccccc2)c1` (stereo partly drawn) [Example 7, (1R,2S,3R,4R,Z)-N-(4-fluoro-3-(trifluoromethyl)phenyl)-3-(2-hydroxy-2-(3-phenoxyphenyl)acetamido)-7-(2,2,2-trifluoroethylidene)bicyclo [2.2.1]heptane-2-carboxamide], 3400 nM; for `O=C(O)c1cccc(C2CCC(C(=O)N[C@H]3[C@@H](C(=O)Nc4ccc(F)c(C(F)(F)F)c4)[C@H]4CC[C@@H]3/C4=C\C(F)(F)F)C2)c1` (single isomer, unassigned) [Example 9], 510 nM.

With `CO[C@H](C(=O)N[C@H]1[C@@H](C(=O)Nc2ccc(F)c(C(F)(F)F)c2)[C@H]2CC[C@@H]1/C2=C\C(F)(F)F)c1ccccc1` [Example 6, (1R,2S,3R,4R,Z)-N-(4-fluoro-3-(trifluoromethyl)phenyl)-3-((S)-2-methoxy-2-phenylacetamido)-7-(2,2,2-trifluoroethylidene)bicyclo [2.2.1]heptane-2-carboxamide], a half-maximal effect (EC50) was put at 3300 nM. The compound `O=C(N[C@H]1[C@@H](C(=O)Nc2ccc(F)c(C(F)(F)F)c2)[C@H]2CC[C@@H]1/C2=C\C1CC1)C1CCC[C@@H](C2=NOC3COCC23)C1` (stereo partly drawn) [Example 16, (1R,2S,3R,4R,7Z)-3-[(3R)-3-{3aH,4H,6H,6aH-furo[3,4-d][1,2]oxazol-3-yl}cyclohexaneamido]-7-(cyclopropylmethylidene)-N-[4-fluoro-3-(trifluoromethyl)phenyl]bicyclo [2.2.1]heptane-2-carboxamide] came in with an EC50 of 1000 nM. Against the preceding compound, the EC50 is about 3.3-fold lower. The same measure, in the same setting: under `O=C(O)c1cccc(C2CCCC(C(=O)N[C@H]3[C@@H](C(=O)Nc4ccc(F)c(C(F)(F)F)c4)[C@H]4CC[C@@H]3/C4=C\C(F)(F)F)C2)c1` (single isomer, unassigned) [Example 2] stands 300 nM; under `O=C(O)CCCCCCC(=O)N[C@H]1[C@@H](C(=O)Nc2ccc(F)c(C(F)(F)F)c2)[C@H]2CC[C@@H]1/C2=C\C1CC1` [Example 8, 8-(((1R,2R,3S,4R,Z)-7-(cyclopropylmethylene)-3-((4-fluoro-3-(trifluoromethyl)phenyl)carbamoyl)bicyclo[2.2.1]heptan-2-yl)amino)-8-oxooctanoic acid], 4700 nM. Same read-out and setting: under `O=C(O)c1cccc(C2CCC(C(=O)N[C@H]3[C@@H](C(=O)Nc4ccc(F)c(C(F)(F)F)c4)[C@H]4CC[C@@H]3/C4=C\C(F)(F)F)CC2)c1` (some centres unmarked) [Example 11] stands 4300 nM; under `O=C(N[C@@H]1C2CCC(/C2=C/C2CC2)[C@@H]1C(=O)Nc1ccc(F)c(C(F)(F)F)c1)C1CCC[C@H](C2=NOC3COCC23)C1` (single isomer, unassigned) [Example 15], 1400 nM. For `O=C(O)c1cccc(C2CCCC(C(=O)N[C@H]3[C@@H](C(=O)Nc4ccc(F)c(C(F)(F)F)c4)[C@H]4CC[C@@H]3/C4=C\C(F)(F)F)C2)c1` (single isomer, unassigned) [Example 1], the midpoint of the response, the EC50, lay at 930 nM. The same measure, in the same setting: for `O=C(O)c1cccc(C2CCCC(C(=O)N[C@H]3[C@@H](C(=O)Nc4ccc(F)c(C(F)(F)F)c4)[C@H]4CC[C@@H]3/C4=C\C(F)(F)F)C2)c1` (single isomer, unassigned) [Example 3] the value was 510 nM.

Test system in the next series: not given
Test: not given
The note with it: intravenous (IV) formulation; cited from earlier work.
Turning to Serelaxin, the first-phase pharmacokinetic half-life was 5.4 min.
